In patent US9173396B2, “Heterocyclic compounds as pesticides” (BAYER INTELLECTUAL PROPERTY GMBH, priority 2010, dated 2015) one finds chromatographic logP, pest or weed control and effect in % data, which are given here for 29 molecules.

Series [1] in a line: log P by HPLC-MS.
Series [2] relates to green peach aphid (Myzus persicae). Kind of series: Myzus test (spray treatment). The format is in vivo. To be noted: foliar, 144 h, application rate of 500 g/ha, after 6 days, Chinese cabbage leaf discs, 100% = all aphids killed, read-out: effect in %. The procedure:
Myzus Test (Spray Treatment)
• Solvents: 78 parts by weight of acetone • 1.5 parts by weight of dimethylformamide • Emulsifier: 0.5 part by weight of alkylaryl polyglycol ether
To produce a suitable preparation of active compound, 1 part by weight of active compound is mixed with the stated amounts of solvent and emulsifier, and the concentrate is diluted with emulsifier-containing water to the desired concentration. Discs of Chinese cabbage (Brassica pekinensis) infected by all stages of the green peach aphid (Myzus persicae) are sprayed with an active compound preparation of the desired concentration.
After 6 days, the effect in % is determined. 100% means that all of the aphids have been killed; 0% means that none of the aphids have been killed.

The subject of series [3] is greenhouse red spider mite (Tetranychus urticae). Kind of series: Tetranychus test (OP-resistant/spray treatment). The class given is in vivo. To be noted: application rate of 500 g/ha; after 6 days; bean leaf discs; 100% = all spider mites killed. The procedure:
Tetranychus Test (OP-Resistant/Spray Treatment)
• Solvents: 78.0 parts by weight of acetone • 1.5 parts by weight of dimethylformamide • Emulsifier: 0.5 part by weight of alkylaryl polyglycol ether
To produce a suitable preparation of active compound, 1 part by weight of active compound is mixed with the stated amounts of solvent and emulsifier, and the concentrate is diluted with emulsifier-containing water to the desired concentration. Discs of bean leaves (Phaseolus vulgaris) which are infested by all stages of the greenhouse red spider mite (Tetranychus urticae) are sprayed with an active compound preparation of the desired concentration.
After 6 days, the effect in % is determined. 100% means that all of the spider mites have been killed; 0% means that none of the spider mites have been killed.

Where [4] appears, read: log P, HPLC-MS, eluent not stated.
The mark [5] stands for this setting: HCOOH (formic acid), log P (HCOOH), HPLC-MS, HCOOH.
[6] abbreviates: HCOOH (formic acid), logP, HCOOH, Table 1.

For orientation: chromatographic logP means lipophilicity estimated from chromatographic retention.

Where two headings read alike, the source gives them in different places.

`CN(C)C=CC(=O)c1cncc(F)c1` (mixture of isomers) [(E/Z)-3-(Dimethylamino)-1-(5-fluoro-3-pyridinyl)-2-propen-1-one] had a chromatographic logP in series [1] (setting [4]) of 0.91.

The molecule `C#Cc1cccc(-c2ncccn2)n1` [2-(6-ethynylpyridin-2-yl)pyrimidine, 2-(6-Ethynylpyridin-2-yl)pyrimidine] had a chromatographic logP in series [1] (setting [4]) of 1.05. This chromatographic logP and that of the molecule before are within 0.2 log units of each other.

Consider `Cn1nc(-c2cccc(Br)n2)cc1-c1cccnc1` [2-Bromo-6-[1-methyl-5-(pyridin-3-yl)-1H-pyrazol-3-yl]pyridine], for which the chromatographic logP in series [1] (HCOOH (formic acid)) was 1.94.

Molecule `c1cnc(-c2cccc(-c3nccs3)n2)nc1` [2-[6-(1,3-Thiazol-2-yl)pyridin-2-yl]pyrimidine] gave a chromatographic logP in series [1] (setting [4]) of 1.43.

Take `C[Si](C)(C)C#Cc1cccc(-c2ncccn2)n1` [2-{6-[(Trimethylsilyl)ethynyl]pyridin-2-yl}pyrimidine]: the chromatographic logP in series [1] was found to be 3.11.

`Fc1cncc(-c2cc[nH]n2)c1` [3-(5-fluoro-3-pyridinyl)-1H-pyrazole, 3-(5-Fluoro-3-pyridinyl)-1H-pyrazole] gave a chromatographic logP in series [1] (setting [4]) of 0.92.

`CC1(C)OB(c2coc(-c3cccnc3)c2)OC1(C)C` [3-[4-(4,4,5,5-Tetramethyl-1,3,2-dioxaborolan-2-yl)-2-furyl]pyridine] yielded a chromatographic logP in series [1] (setting [4]) of 2.25.

On to `CCc1nn(-c2cccnc2)c(=O)n1N` [4-Amino-5-ethyl-2-(pyridin-3-yl)-2,4-dihydro-3H-1,2,4-triazol-3-one], for which the chromatographic logP in series [1] (setting [4]) came to 0.32.

Regarding `CC(C)c1nn(-c2cccnc2)c(=O)n1N` [4-Amino-5-isopropyl-2-(pyridin-3-yl)-2,4-dihydro-3H-1,2,4-triazol-3-one], in series [1] (setting [4]), the chromatographic logP amounted to 0.85.

Molecule `CCc1nn(-c2cccnc2)c(=O)[nH]1` [5-Ethyl-2-(pyridin-3-yl)-2,4-dihydro-3H-1,2,4-triazol-3-one] came in with a chromatographic logP in series [1] (setting [4]) of 0.3.

`CC(C)c1nn(-c2cccnc2)c(=O)[nH]1` [5-Isopropyl-2-(pyridin-3-yl)-2,4-dihydro-3H-1,2,4-triazol-3-one] returned a chromatographic logP in series [1] (setting [4]) of 0.71.

For `Cc1nn(-c2cccnc2)c(=O)[nH]1` [5-Methyl-2-(pyridin-3-yl)-2,4-dihydro-3H-1,2,4-triazol-3-one], the chromatographic logP in series [1] (setting [4]) was -0.21.

In series [1] (setting [4]), `O=C(O)c1cccc(-n2ccc(-c3cncc(F)c3)n2)n1` [6-[3-(5-Fluoro-3-pyridinyl)-1H-pyrazol-1-yl]-2-pyridinecarboxylate] returned a chromatographic logP of 1.81.

As for `Brc1cccc(-c2cc(-c3cccnc3)no2)n1` [Compound 1, 2-Bromo-6-[3-(pyridin-3-yl)-1,2-oxazol-5-yl]pyridine], the pest or weed control at 500 g/ha in series [2] turned out to be 100%. The chromatographic logP in series [1] (setting [5]) and in series [1] (setting [6]) was 2.23 throughout.

For `Cn1nc(-c2cccc(-c3ncccn3)n2)cc1-c1cccnc1` [Compound 2, 2-{6-[1-Methyl-5-(pyridin-3-yl)-1H-pyrazol-3-yl]pyridin-2-yl}pyrimidine], the pest or weed control at 500 g/ha in series [2] came out at 100%. For the same molecule, the chromatographic logP in series [1] (setting [5]) and in series [1] (setting [6]) was 1.26 in each case.

For `c1cnc(-c2cccc(-n3cnc(-c4cccnc4)c3)n2)nc1` [Compound 3, 2-{6-[4-(Pyridin-3-yl)-1H-imidazol-1-yl]pyridin-2-yl}pyrimidine], the pest or weed control at 500 g/ha in series [2] came to 100%. Moreover, the chromatographic logP in series [1] (setting [5]) was found to be 0.75; in series [1] (setting [6]), 0.73.

As for `FC(F)(F)c1cccc(-n2cnc(-c3cccnc3)n2)n1` [Compound 6, 2-[3-(Pyridin-3-yl)-1H-1,2,4-triazol-1-yl]-6-(trifluoromethyl)pyridine], the pest or weed control at 500 g/ha in series [2] is 100%. In addition, the chromatographic logP in series [1] (setting [6]) and in series [1] (setting [4]) was 2.11 in each case.

Regarding `c1cnc(-c2cccc(-c3cnc(-c4cccnc4)o3)n2)nc1` [Compound 7, 2-{6-[2-(Pyridin-3-yl)-1,3-oxazol-5-yl]pyridin-2-yl}pyrimidine], in series [3], the effect in % is recorded as 100%. Moreover, in series [2], the pest or weed control at 500 g/ha worked out at 100%. Also, the chromatographic logP in series [1] (setting [6]) and in series [1] (setting [4]) was 1.39 throughout.

Turning to `c1cnc(-c2cccc(-n3cc(-c4cccnc4)cn3)n2)nc1` [Compound 9, 2-{6-[4-(Pyridin-3-yl)-1H-pyrazol-1-yl]pyridin-2-yl}pyrimidine], the pest or weed control at 500 g/ha in series [2] came out at 100%. In addition, the chromatographic logP in series [1] (setting [6]) and in series [1] (setting [4]) was 1.04 throughout.

Regarding `c1cnc(-c2cccc(-c3cn(-c4cccnc4)nn3)n2)nc1` [Compound 10, 2-{6-[1-(Pyridin-3-yl)-1H-1,2,3-triazol-4-yl]pyridin-2-yl}pyrimidine], in series [2], the pest or weed control at 500 g/ha was determined as 100%. Besides, the chromatographic logP in series [1] (setting [6]) and in series [1] (setting [4]) was 1.39 throughout.

For `c1cnc(-c2cccc(-c3coc(-c4cccnc4)c3)n2)nc1` [Compound 11, 2-{6-[5-(Pyridin-3-yl)-3-furyl]pyridin-2-yl}pyrimidine], the chromatographic logP in series [1] (setting [6]) and in series [1] (setting [4]) was 1.26 each time.

On to `c1cnc(-c2cccc(-n3ccc(-c4cccnc4)n3)n2)nc1` [Compound 13, 2-{6-[3-(Pyridin-3-yl)-1H-pyrazol-1-yl]pyridin-2-yl}pyrimidine], for which the chromatographic logP in series [1] (setting [6]) and in series [1] (setting [4]) was 1.2 throughout.

Turning to `CC(C)c1nn(-c2cccnc2)c(=O)n1-c1cccc(-c2ncccn2)n1` [Compound 14, 5-Isopropyl-2-(pyridin-3-yl)-4-[6-(pyrimidin-2-yl)pyridin-2-yl]-2,4-dihydro-3H-1,2,4-triazol-3-one], the chromatographic logP in series [1] (setting [6]) and in series [1] (setting [4]) was 1.77 throughout.

For `CCc1nn(-c2cccnc2)c(=O)n1-c1cccc(-c2ncccn2)n1` [Compound 15, 5-Ethyl-2-(pyridin-3-yl)-4-[6-(pyrimidin-2-yl)pyridin-2-yl]-2,4-dihydro-3H-1,2,4-triazol-3-one], the chromatographic logP in series [1] (setting [6]) worked out at 1.48.

`Cc1nn(-c2cccnc2)c(=O)n1-c1cccc(-c2ncccn2)n1` [Compound 16, 5-methyl-2-(pyridin-3-yl)-4-[6-(pyrimidin-2-yl)pyridin-2-yl]-2,4-dihydro-3H-1,2,4-triazol-3-one] showed a chromatographic logP in series [1] (setting [6]) of 1.17.

As for `c1cnc(-c2cccc(-c3ncc(-c4cccnc4)s3)n2)nc1` [Compound 17, 2-{6-[5-(Pyridin-3-yl)-1,3-thiazol-2-yl]pyridin-2-yl}pyrimidine], the pest or weed control at 500 g/ha in series [2] was 100%. For the same molecule, the chromatographic logP in series [1] (setting [6]) and in series [1] (setting [4]) was 1.79 throughout.

With `Fc1cncc(-c2cnc(-c3cccc(-c4ncccn4)n3)s2)c1` [Compound 21, 2-{6-[5-(5-Fluoropyridin-3-yl)-1,3-thiazol-2-yl]pyridin-2-yl}pyrimidine], the pest or weed control at 500 g/ha in series [2] was 90%. The chromatographic logP in series [1] (HPLC-MS, logP, HCOOH, Table 2) worked out at 2.13; in series [1] (setting [4]), 2.13.

For `CN(C)S(=O)(=O)NC(=O)c1cccc(-n2ccc(-c3cncc(F)c3)n2)n1` [Compound 22, 6-[3-(5-Fluoro-3-pyridinyl)-1H-pyrazol-1-yl]-N-[(dimethylamino)sulfonyl]-2-pyridinecarboxamide], the chromatographic logP in series [1] (HPLC-MS, log P, eluent not stated) came to 2.61; in series [1] (HPLC-MS, logP, HCOOH, Table 2) it was 2.61.

Molecule `COC(=O)c1cccc(-n2ccc(-c3cncc(F)c3)n2)n1` [Methyl 6-[3-(5-fluoro-3-pyridinyl)-1H-pyrazol-1-yl]-2-pyridinecarboxylate] gave a chromatographic logP in series [1] (setting [4]) of 1.07.
